Results as given in publication PMC7336998, “Discovery of secondary sulphonamides as IDO1 inhibitors with potent antitumour effects in vivo” (Journal of Enzyme Inhibition and Medicinal Chemistry, 2020).

Assays:
HeLa cells = assay: HeLa cell viability by MTT at the end of the IDO1/kynurenine assay; type: cell-based, human; conditions: under the experimental conditions of the IDO1 assay
From the text: It is well known that IDO1 is broadly expressed in human cancers and is induced by pro-inflammatory cytokines, such as interferon gamma (IFN-γ) and tumour necrosis factor alpha (TNF-α)[41]. Here we utilised a human cervical cancer cell line HeLa that endogenously expresses IDO1 upon IFN-γ treatment to evaluate the IDO1 inhibitory activity of the synthesised compounds by measuring kynurenine secreted into the media. This cell-based assay, as a rapid and simple method for determination IDO1/kynurenine, is closely related to the potency of the enzyme assay and has been widely used to identify various IDO1 inhibitors[19]^,[23]^,[29]^,[42]. In addition, cytotoxic compounds can reduce cell viability, which will decrease the IDO1 levels and then lower the conversion of tryptophan to kynurenine. Thus, we also employed this cellular assay to detect false positive IDO1 inhibitors and cytotoxic compounds by measuring HeLa cell viability. Clinical candidate navoximod was used as an assay control.
Furthermore, the viability of HeLa cells was evaluated by the MTT method at the end of the assay.

B16F1 melanoma = B16F1 melanoma xenograft in BALB/c mice; type: in vivo, mouse
Method: BALB/c mice (6–8 weeks old, 18–22 g) were supplied by Model Animal Research Centre of Nanjing University (Nanjing, China). Mice were maintained under standard specific-pathogen-free (SPF) conditions (21 ± 2 °C and 12-h light: dark cycle). Animal welfare and experimental procedures were carried out strictly in accordance with the Guide for the Care and Use of Laboratory Animals (The Ministry of Science and Technology of China, 2006) and the related ethical regulations of our university. All efforts were made to minimise animals’ suffering and to reduce the number of animals used. Mouse colon cancer cells (CT26) and melanoma cells (B16F1) were cultured and collected by centrifugation (1000 rpm, 5 min) and washed twice with ice-cold PBS. Then cells were diluted to 1 × 10^7/ml and 1 × 10^6 CT26/B16F1 cells (in 0.1 ml PBS) were injected subcutaneously into the right flanks of mice. All mice formed tumours three days after injection. Then mice were randomly distributed into five groups (n = 10/8) according to tumour volumes. 5d ([…], 12.5 mg/kg) were administered (i.g) to each group respectively every day. 5-FU (25 mg/kg) and Cis-platinum (1 mg/kg) were administered (i.p) every three days. Tumour length and tumour width were measured with a Vernier calliper every three days. Tumour volumes were measured and calculated using the equation volume = a × b^2/2, where “a” is the maximal […] and “b” is maximal orthogonal width. After the administration were completed, mice were weighed, euthanized, and tumours were removed and the weight were taken.
For immunohistochemistry staining, the sections were deparaffinized, rehydrated, and washed in 1% PBS-Tween 20, and then treated with 2% hydrogen peroxide, blocked with 3% goat serum (Life Technology, 16210–064) and incubated for 2 h at room temperature with specific primary antibodies. Then the slides were incubated with streptavidin-HRP (Shanghai Gene Company, GK500705) for 40 min, then stained with DAB (Shanghai Gene Company, GK500705) substrate and counter-stained with haematoxylin. Images were acquired by microscopy (Olympus IX51).
In addition, we also utilised a B16F1 melanoma mouse xenograft model to observe the efficacy of compound 5d on the other tumours. Malignant melanoma is a highly invasive tumour and its immunotherapy has been receiving attention in recent years. As mentioned above, B16F1 is a murine melanoma cell line that expresses IDO1. The mouse xenograft model was established by subcutaneously implanting B16F1 melanoma cells into BALB/c mice and treated with 5d (3.125, 6.25, 12.5 mg/kg, i.g, every day) or the positive control Cis-platinum (1 mg/kg, i.p, every other day). Tumour volumes were measured every two days for 11 days.
Figure 13. Compound 5d suppressed melanoma growth in mice. 1 × 10^6 melanoma cells were transplanted subcutaneously into the armpit of the BALB/c mice. Three days after transplantation, mice were randomly allocated to vehicle control or treatment groups (n = 6). Drugs were administered on days 1–11. (A) Tumour volume and mouse body weight (B) were recorded. After sacrifice, solid tumours were separated and weighed (C, D). Data represent mean ± SEM, n = 6, *p < 0.05, **p < 0.01 vs vehicle.
Analogously, we also performed H&E, IHC and TUNEL experiments on the B16F1 melanoma tissues (Figure 14 and 15).

SMILES: C=CC(=O)Nc1ccc(S(=O)(=O)NCc2cccc(Cl)c2)cc1 [5d, N-(4-(N-(3-Chlorobenzyl)sulfamoyl)phenyl)acrylamide]
- HeLa cell viability (HeLa cells): without affecting the cell viability
- IFN-γ expression (IHC) (B16F1 melanoma; B16F1 melanoma tissue): up-regulating IFN-γ expression
- granzyme B (IHC) (B16F1 melanoma; B16F1 melanoma tissue): stimulating granzyme B secretion
- number of tumour cells (H&E, PCNA, TUNEL) (B16F1 melanoma; B16F1 melanoma tissue): reduce the number of tumour cells by inhibiting proliferation and inducing apoptosis
- tumour growth (tumour volume and tumour weight) (B16F1 melanoma; BALB/c mice, 3.125, 6.25, 12.5 mg/kg, i.g, every day, 11 days, vs vehicle): significantly suppressed the growth of tumour in a dose-dependent manner
- body weight (B16F1 melanoma; BALB/c mice, 3.125-12.5 mg/kg i.g, 11 days): without significant body weight loss
- reduction of average volume of tumour (B16F1 melanoma; BALB/c mice, high dose, 11 days): 34.3%
